Results published in patent publication US20220402925A1, “COMPOUNDS AND METHODS FOR THE TREATMENT OF CYSTIC FIBROSIS” (Flatley Discovery Lab, LLC, priority 2019, published 2022).

Molecular target: T1, F508del CFTR (Homo sapiens, UniProt P13569, DEL508-508)
T1 construct: Primary CF airway epithelial cells were obtained from the UNC Cystic Fibrosis Tissue Procurement and Cell Culture Core; host or cells: primary CF airway epithelial cells
Experiment: Equivalent current assay in primary CF airway epithelial cells (Corrector Activity, NAUC normalized to 3 μM VX809)
Assay type: cell-based
Details: NAUC as % of positive control (VX-809)
Procedure: Primary CF airway epithelial cells were obtained from the UNC Cystic Fibrosis Tissue Procurement and Cell Culture Core. The cells are grown at 37° C. in a Heracell 150i incubator using growth media (BEGM, Fischer). Cells were then transferred to differentiation media (airway liquid interface media (ALI) media; Lechner J F and LaVeck M A, J. Tissue Culture Methods 1985, 9: 43-48) for a minimum of 4 weeks on coated Costar transwells. Two days before the assay the mucus on the apical surface of the cells was aspirated after incubating with 200 μL of differentiation media for at least thirty (30) minutes. One day before the assay test compounds were added to the basolateral surface of the cells at various test concentrations dissolved in DMSO. Duplicate wells were prepared giving a n=4 or n=6 protocol.
Cells were treated for 24 hours with various combinations and concentrations of the test articles, reference standard (3 μM VX809, positive control). Compounds stock solutions were prepared in DMSO and diluted 1/1000 into ALI media to their final assay concentration. Cells were treated with combination solutions (2 mL of each dilution) and incubated at 37° C. for 24 h.
For the equivalent current assay, cells on six Transwell (24-well) plates were treated. Each Transwell plate was filled with 200 μl of HBS on the apical surface and 2 ml on the basolateral surface. Plates were placed horizontally in a heated mount at 37° C. and equilibrated for 30 minutes. Resting current was measured for 15 min and then blocked by the apical addition of 5 μM benzamil. After 20 min, CFTR activator (10 μM forskolin) and potentiator (either 1 μM VX-770 or 3 μM FDL176) were added to both the apical and basolateral side to stimulate CFTR. An increase in chloride current is seen as an upward deflection of the trace. After another 60 min, CFTR-172 (a CFTR inhibitor, 20 μM) and/or bumetanide (20 uM) was added to block CFTR mediated chloride current.
The raw data, voltage vs. time and resistance vs. time for the equivalent current assay (sampling interval: 6 minutes) were transferred to Excel (Microsoft Office Professional, version 14.0.7106.5003) for analysis. CFTR specific current was computed from I=V/R (Ohms Law), the average amplitude of the increase in current elicited upon addition forskolin and ending upon addition of the CFTR channel specific blocker CFTR-172. This average is equivalent to the sum of the average forskolin activated and the average VX770-potentiated currents. The average current measured in vehicle (0.1% DMSO) treated cells, IV, was subtracted from the current for the test article, ITA, or from the corrector reference standard VX809 (3 uM, ISTD). For replicate measurements, the averaged vehicle subtracted response for the test article, was normalized to the averaged vehicle subtracted response of the reference corrector VX809 (3 μM).
INSC=(ITA−IV)(ave)/(ISTD−IV)(ave) (Equation 1)
A second endpoint, for the equivalent current assay, evaluated was NAUC, the normalized area under the curve (AUC) measuring the response after addition of forskolin and potentiator to the time point right before the addition of the CFTR inhibitor. The AUC is effectively the average response multiplied by the duration of the response. The AUC of the test article, AUCTA was then corrected by subtracting the average vehicle response, AUCV,ave over the same time range, and normalized as for the inhibitor-sensitive current to the difference of the corrector reference standard VX809 (3 μM VX809r,ave and the vehicle response:
NAUCTA=[AUCTA−AUCV,ave]/[AUCVx809r,ave−AUCV,ave] (Equation 2).
The normalized value for DMSO is 0.0 and for VX-809 alone is 1.0 for both of these equations.
Experiments were run with a minimum of n=4 replicates per concentration. Since the distribution for the ratio of two normal distributions is a Cauchy distribution, the median value must be used for the average and the average deviation must be used for the error of all normalized data. […]

T1 sequence (P13569 with tags, fused parts or gaps DEL508-508): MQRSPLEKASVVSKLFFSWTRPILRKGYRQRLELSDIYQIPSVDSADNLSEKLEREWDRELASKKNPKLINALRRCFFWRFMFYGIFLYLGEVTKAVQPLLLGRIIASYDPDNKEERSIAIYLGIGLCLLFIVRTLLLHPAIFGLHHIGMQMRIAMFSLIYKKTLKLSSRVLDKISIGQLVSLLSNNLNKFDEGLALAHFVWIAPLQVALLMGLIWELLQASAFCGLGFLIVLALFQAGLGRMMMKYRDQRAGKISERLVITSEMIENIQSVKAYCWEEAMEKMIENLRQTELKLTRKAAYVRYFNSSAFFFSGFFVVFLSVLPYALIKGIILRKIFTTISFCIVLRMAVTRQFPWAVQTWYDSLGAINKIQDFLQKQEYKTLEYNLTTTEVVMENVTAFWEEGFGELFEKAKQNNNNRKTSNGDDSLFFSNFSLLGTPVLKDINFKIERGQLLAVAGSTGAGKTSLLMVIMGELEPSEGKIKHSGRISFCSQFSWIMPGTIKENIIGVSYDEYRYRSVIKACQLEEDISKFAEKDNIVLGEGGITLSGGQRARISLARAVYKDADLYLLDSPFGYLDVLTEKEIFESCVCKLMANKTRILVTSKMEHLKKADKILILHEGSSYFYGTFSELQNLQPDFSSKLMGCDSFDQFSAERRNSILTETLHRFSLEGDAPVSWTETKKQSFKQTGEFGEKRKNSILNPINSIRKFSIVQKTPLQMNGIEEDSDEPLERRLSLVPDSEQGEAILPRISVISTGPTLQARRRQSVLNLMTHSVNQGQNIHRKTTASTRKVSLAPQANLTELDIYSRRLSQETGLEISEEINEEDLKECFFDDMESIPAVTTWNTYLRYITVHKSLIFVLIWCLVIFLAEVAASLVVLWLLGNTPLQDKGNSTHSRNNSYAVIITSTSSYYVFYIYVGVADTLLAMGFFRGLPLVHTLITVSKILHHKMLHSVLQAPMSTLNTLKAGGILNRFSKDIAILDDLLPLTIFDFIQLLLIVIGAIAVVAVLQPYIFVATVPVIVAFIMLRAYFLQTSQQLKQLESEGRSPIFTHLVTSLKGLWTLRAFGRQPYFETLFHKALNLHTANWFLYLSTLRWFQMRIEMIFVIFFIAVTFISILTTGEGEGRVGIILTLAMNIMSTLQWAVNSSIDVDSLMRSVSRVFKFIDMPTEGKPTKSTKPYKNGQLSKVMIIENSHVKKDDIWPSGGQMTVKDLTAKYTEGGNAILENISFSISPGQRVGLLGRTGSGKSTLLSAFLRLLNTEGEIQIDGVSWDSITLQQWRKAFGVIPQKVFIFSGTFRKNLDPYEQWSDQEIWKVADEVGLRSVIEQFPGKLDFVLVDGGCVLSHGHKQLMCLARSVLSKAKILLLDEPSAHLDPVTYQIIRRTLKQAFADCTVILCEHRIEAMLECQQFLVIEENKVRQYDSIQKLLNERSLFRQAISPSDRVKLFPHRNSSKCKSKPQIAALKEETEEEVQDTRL

SMILES	Corr Activity (NAUC)
CCN(C(=O)Cn1nc(-c2cc(F)cc(C#N)c2)c2oc(C3CCC3)cc2c1=O)c1ccc2c(c1)OC(F)(F)O2 [Example 238]	++ (NAUC 70-40% of positive control)
CCN(C(=O)Cn1nc(-c2cc(O)cc(OC(F)(F)F)c2)c2[nH]cnc2c1=O)c1ccc2c(c1)OC(F)(F)O2 [Example 284]	+ (NAUC<40% of positive control)
Cc1cc2c(cc1N(C)C(=O)Cn1nc(-c3cc(C#N)cc(C(F)F)c3)c3oc(C(=O)NC(C)(C)C)cc3c1=O)OC(F)(F)O2 [Example 145]	++ (NAUC 70-40% of positive control)
CCN(C(=O)Cn1nc(-c2cc(C)cc(C#N)c2)c2[nH]cnc2c1=O)c1ccc2c(c1)OC(F)(F)O2 [Example 246]	+++ (NAUC>70% of positive control)
CN(C(=O)Cn1nc(-c2cccc(F)c2)c2sccc2c1=O)c1ccc2c(c1)CCC2 [Example 3]	+++ (NAUC>70% of positive control)
CN(C(=O)Cn1nc(-c2cccc(C#N)c2)c2sccc2c1=O)c1ccc2c(c1)OC(F)(F)O2 [Example 7]	+++ (NAUC>70% of positive control)
CCN(C(=O)Cn1nc(-c2cc(C(C)(C)C)cc(C(C)(C)C)c2)c2[nH]cnc2c1=O)c1ccc2c(c1)OC(F)(F)O2 [Example 280]	+ (NAUC<40% of positive control)
COC(=O)c1ccc(-c2nn(CC(=O)N(C)c3ccc4c(c3)OC(F)(F)O4)c(=O)c3ccoc23)cc1C#N [Example 95]	++ (NAUC 70-40% of positive control)
CCN(C(=O)Cn1nc(-c2ccc3c(c2)OCCO3)c2[nH]cnc2c1=O)c1ccc2c(c1)OC(F)(F)O2 [Example 294]	+ (NAUC<40% of positive control)
N#Cc1cccc(-c2nn(CC(=O)N(c3ccc4c(c3)OC(F)(F)O4)C3CC3)c(=O)c3nc[nH]c23)c1 [Example 372]	+++ (NAUC>70% of positive control)
Cc1nc2ccc(N(C)C(=O)Cn3nc(-c4cccc(F)c4)c4sc(C)nc4c3=O)cc2o1 [Example 19]	+++ (NAUC>70% of positive control)
CCN(C(=O)Cn1nc(-c2cc(F)cc(C#N)c2)c2[nH]cnc2c1=O)c1ccc2c(c1)OC(F)(F)O2 [Example 242]	+++ (NAUC>70% of positive control)
CCN(C(=O)Cn1nc(-c2ccc(OC(C)C)c(Cl)c2)c2[nH]cnc2c1=O)c1ccc2c(c1)OC(F)(F)O2 [Example 326]	+++ (NAUC>70% of positive control)
CCN(C(=O)Cn1nc(-c2cc(F)cc(C(F)(F)F)c2)c2[nH]cnc2c1=O)c1ccc2c(c1)OC(F)(F)O2 [Example 268]	++ (NAUC 70-40% of positive control)
CN(C(=O)Cn1nc(-c2cccc(C#N)c2)c2occc2c1=O)c1ccc2c(c1F)OC(F)(F)O2 [Example 59]	+++ (NAUC>70% of positive control)
CN(C(=O)Cn1nc(-c2cc(C#N)cc(C(F)F)c2)c2oc(C(=O)NC(C)(C)C)cc2c1=O)c1ccc2c(c1)OC(F)(F)O2 [Example 146]	+++ (NAUC>70% of positive control)
CCN(C(=O)Cn1nc(-c2cc(C#N)cc(C(C)(C)C)c2)c2oc(C(=O)NC(C)(C)C)cc2c1=O)c1ccc2c(c1)OC(F)(F)O2 [Example 130]	+++ (NAUC>70% of positive control)
N#Cc1cc(-c2nn(CC(=O)N(c3ccc4c(c3)OC(F)(F)O4)C3CC3)c(=O)c3nc[nH]c23)ccc1OC(F)(F)F [Example 483]	++ (NAUC 70-40% of positive control)
CCN(C(=O)Cn1nc(-c2cc(Cl)cc(C#N)c2)c2[nH]cnc2c1=O)c1ccc2c(c1)OC(F)(F)O2 [Example 244]	+++ (NAUC>70% of positive control)

Results, then the compound that gave them:

Corr Activity (NAUC)	SMILES
+ (NAUC<40% of positive control)	CCN(C(=O)Cn1nc(-c2cccc(C#N)c2)c2occc2c1=O)c1ccc(OC(F)(F)F)cc1 [Example 62]
+++ (NAUC>70% of positive control)	CCOC(=O)c1ccc(-c2nn(CC(=O)N(CC)c3ccc4c(c3)OC(F)(F)O4)c(=O)c3ccoc23)cc1C#N [Example 96]
+++ (NAUC>70% of positive control)	CCN(C(=O)Cn1nc(-c2cccc(C#N)c2)c2occc2c1=O)c1cc2c(cc1C)OC(F)(F)O2 [Example 45]
++ (NAUC 70-40% of positive control)	CCN(C(=O)Cn1nc(-c2cccc(C#N)c2)c2cn[nH]c2c1=O)c1ccc2c(c1)OC(F)(F)O2 [Example 493, 2-(4-(3-cyanophenyl)-7-oxo-1,7-dihydro-6H-pyrazolo[3,4-d]pyridazin-6-yl)-N-(2,2-difluorobenzo[d][1,3]dioxol-5-yl)-N-ethylacetamide]
+ (NAUC<40% of positive control)	CN(C(=O)Cn1nc(-c2cccc(Cl)c2)c2oc(C(=O)NCCO)cc2c1=O)c1ccc2c(c1)OC(F)(F)O2 [Example 212]
+ (NAUC<40% of positive control)	CCN(C(=O)Cn1nc(-c2ccc(C)c(CO)c2)c2[nH]cnc2c1=O)c1ccc2c(c1)OC(F)(F)O2 [Example 337]
+++ (NAUC>70% of positive control)	N#Cc1cc(Cl)cc(-c2nn(CC(=O)N(c3ccc4c(c3)OC(F)(F)O4)C3CC3)c(=O)c3nc[nH]c23)c1 [Example 369]
+++ (NAUC>70% of positive control)	CCN(C(=O)Cn1nc(-c2ccc(Cl)c(Cl)c2)c2[nH]cnc2c1=O)c1ccc2c(c1)OC(F)(F)O2 [Example 322]
++ (NAUC 70-40% of positive control)	CCN(C(=O)Cn1nc(-c2cc(Cl)cc(Cl)c2)c2oc(C3CCC3)cc2c1=O)c1ccc2c(c1)OC(F)(F)O2 [Example 234]
++ (NAUC 70-40% of positive control)	CCN(C(=O)Cn1nc(-c2cc(Cl)cc(C#N)c2)c2oc(C3CCC3)cc2c1=O)c1ccc2c(c1)OC(F)(F)O2 [Example 237]
+ (NAUC<40% of positive control)	CCN(C(=O)Cn1nc(-c2ccc(CC#N)c(F)c2)c2[nH]cnc2c1=O)c1ccc2c(c1)OC(F)(F)O2 [Example 317]
+++ (NAUC>70% of positive control)	CN(C(=O)Cn1nc(-c2cccc(C#N)c2)c2oc(CN3CCCCC3)cc2c1=O)c1ccc2c(c1)OC(F)(F)O2 [Example 182, 2-(7-(3-cyanophenyl)-4-oxo-2-(piperidin-1-ylmethyl)furo[2,3-d]pyridazin-5(4H)-yl)-N-(2,2-difluorobenzo[d][1,3]dioxol-5-yl)-N-methylacetamide]
++ (NAUC 70-40% of positive control)	CCN(C(=O)Cn1nc(-c2cccc(C#N)c2)c2[nH]ncc2c1=O)c1ccc2c(c1)OC(F)(F)O2 [Example 492, 2-(7-(3-cyanophenyl)-4-oxo-1,4-dihydro-5H-pyrazolo[3,4-d]pyridazin-5-yl)-N-(2,2-difluorobenzo[d][1,3]dioxol-5-yl)-N-ethylacetamide]
+ (NAUC<40% of positive control)	O=C(Cn1nc(-c2ccc(N3CCCC3)cc2)c2[nH]cnc2c1=O)N(c1ccc2c(c1)OC(F)(F)O2)C1CC1 [Example 490]
+++ (NAUC>70% of positive control)	CCN(C(=O)Cn1nc(-c2cc(Cl)cc(OCc3ccccc3)c2)c2[nH]cnc2c1=O)c1ccc2c(c1)OC(F)(F)O2 [Example 273]
+++ (NAUC>70% of positive control)	CN(C(=O)Cn1nc(-c2cc(F)cc(C#N)c2)c2[nH]cnc2c1=O)c1ccc2c(c1)OC(F)(F)O2 [Example 216, 2-(7-(3-cyano-5-fluorophenyl)-4-oxo-1,4-dihydro-5H-imidazo[4,5-d]pyridazin-5-yl)-N-(2,2-difluorobenzo[d][1,3]dioxol-5-yl)-N-methylacetamide]
